Laboratory results: paper PMC5308787, “Isoprenoid-phospholipid conjugates as potential therapeutic agents: Synthesis, characterization and antiproliferative studies” (PLoS ONE, 2017)

Legend:
[1] = system: MV4-11 (human biphenotypic B myelomonocytic leukaemia); test: Antiproliferative MTT assay, 72 h exposure; format: cell-based; conditions: Homo sapiens, MV4-11, mean ± SD of 3–5 independent experiments
Procedure: (§1) The biological studies were performed in vitro using human cancer cell lines: MV4-11 (human biphenotypic B myelomonocytic leukaemia), A-549 (non-small cell lung cancer), MCF-7 (breast cancer), LoVo (colon cancer), LoVo/DX (colon cancer drug resistant), HepG2 (liver cancer) and BALB/3T3 (normal mice fibroblasts). These lines were obtained from American Type Culture Collection (Rockville, Maryland, U.S.A.). The cell line is being maintained in the Institute of Immunology and Experimental Therapy, Wroclaw, Poland. All cell lines were grown at 37°C with 5% CO2 humidified atmosphere and were cultured in cultured medium according to the method described before.
(§2) Prior to usage, the compounds were dissolved in DMSO or in mixture of 99.8% ethanol and DMSO (1:1) to the concentration of 25 or 50 mM, and subsequently diluted in culture medium to reach the required concentrations (ranging from 5 to 625 μM).
(§3) Twenty-four hours prior to the addition of tested compounds, the cells were plated in 96-well plates (Sarstedt, Germany) at a density of 1 × 10^4 cells per well in 100 μL of culture medium. The assay was performed after 72 h of exposure to varying concentrations of the tested agents. The in vitro cytotoxic effect of tested agents was examined using the MTT (for MV4-11 cells) or SRB assay which were described previously. Each compound in each concentration was tested in triplicate in a single experiment, which was repeated 3–5 times.
(§4) The results of antiproliferative activity were given as IC50 values. Using this parameter we calculated also the resistance indexes (RI) dividing the IC50 values of selected compounds estimated for drug resistant cell LOVO/DX line by respective values designated for drug sensitive LoVo line. According to Harker et al. three categories of the cells could be distinguished: (a) the cells are drug-sensitive—if the ratio approaches 0–2; (b) the cells are moderately drug-resistant—if the ratio ranges from 2 to 10; (c) the cells are markedly drug-resistant—if the ratio is higher than 10.

[2] = system: A-549 (non-small cell lung cancer); test: Antiproliferative SRB assay, 72 h exposure; format: cell-based, human; conditions: Homo sapiens, A549, mean ± SD of 3–5 experiments, n.a. = no activity in concentration of 5, 25, 125, 625 μM
Procedure: as §1, §2, §3, §4

HepG2 (liver cancer) = test: Antiproliferative SRB assay, 72 h exposure; format: cell-based, human; conditions: Homo sapiens, HepG2, mean ± SD of 3–5 experiments, n.a. = no activity in concentration of 5, 25, 125, 625 μM
Procedure: as §1, §2, §3, §4

LoVo (colon cancer) = test: Antiproliferative SRB assay, 72 h exposure; format: cell-based, human; conditions: LoVo; for IC50: Homo sapiens, SRB, 72 h, mean ± SD of 3–5 experiments, n.a. = no activity in concentration of 5, 25, 125, 625 μM
Procedure: as §1, §2, §3, §4

[3] = system: LoVo/DX (colon cancer drug resistant); test: Antiproliferative SRB assay, 72 h exposure; format: cell-based, human; conditions: Homo sapiens, LoVo/DX, mean ± SD of 3–5 experiments, n.a. = no activity in concentration of 5, 25, 125, 625 μM
Procedure: as §1, §2, §3, §4

MCF-7 (breast cancer) = test: Antiproliferative SRB assay, 72 h exposure; format: cell-based, human; conditions: Homo sapiens, MCF7, mean ± SD of 3–5 experiments, n.a. = no activity in concentration of 5, 25, 125, 625 μM
Procedure: as §1, §2, §3, §4

[4] = system: BALB/3T3 (normal mice fibroblasts); test: Antiproliferative SRB assay, 72 h exposure; format: cell-based; conditions: Mus musculus, BALB/3T3, mean ± SD of 3–5 experiments, n.a. = no activity in concentration of 5, 25, 125, 625 μM
Procedure: as §1, §2, §3, §4

[5] = system: drug resistant LOVO/DX line vs drug sensitive LoVo line; test: Resistance index (RI): IC50 LOVO/DX divided by IC50 LoVo; format: cell-based, human; conditions: for able to overcome the barrier of P-gp-dependent resistance: judged from RI; for Resistance index (RI): RI = IC50 resistant line / IC50 non-resistant line, 0<RI<2 able to overcome drug resistance, 2<RI<10 moderate ability, RI>10 no influence
Source text: as §4

[6] = system: lung (A549), colon (LoVo) and liver (HepG2) cancer cell lines; test: Antiproliferative activity, range over several cancer cell lines as stated in text; format: cell-based; conditions: Homo sapiens, read-out: IC50 against lung (A549), colon (LoVo) and liver (HepG2) cancer cell lines
Procedure: as §1, §2
Twenty-four hours prior to the addition of tested compounds, the cells were plated in 96-well plates (Sarstedt, Germany) at a density of 1 × 10^4 cells per well in 100 μL of culture medium. […]
The results of antiproliferative activity were given as IC50 values. Using this parameter we calculated also the resistance indexes (RI) dividing the IC50 values of selected compounds estimated for drug resistant cell LOVO/DX line by respective values designated for drug sensitive LoVo line. […]

Structure (SMILES) | IC50 [1] | IC50 [2] | IC50 (HepG2 (liver cancer)) | IC50 (LoVo (colon cancer)) | activity against colon cancer cell line, fold lower than cisplatin (LoVo (colon cancer)) | IC50 [3] | IC50 (MCF-7 (breast cancer)) | IC50 [4] | able to overcome the barrier of P-gp-dependent resistance [5] | IC50 [6] | Resistance index (RI) [5]
C=CC(C)(CC/C=C(\C)CCC=C(C)C)CC(=O)OC[C@H](COP(=O)([O-])OCC[N+](C)(C)C)OC(=O)CC(C)(C=C)CC/C=C(\C)CCC=C(C)C (stereo partly drawn) [Compound 6b] | 27.8 ± 7.52 µM | 30.4 ± 1.5 µM | 53.6 ± 5.1 µM | 13.6 ± 0.7 µM | 5 fold | 57.6 ± 0.6 µM | 45 ± 1.4 µM | 57.8 ± 1.4 µM | exception | 13.6 to 57.8 µM | –
CCC/C=C1/C(C)(C)CCCC1(C)CC(=O)O[C@H](COC(=O)CCCCCCCCCCCCCCC)COP(=O)([O-])OCC[N+](C)(C)C (stereo partly drawn) [Compound 7c, (2’R)-1’-palmitoyl-2’-{2-[(3R,2"E)-2"-butylidene-1",3",3"-trimethyl]cyclohexyl}acetyl-sn-glycero-3’-phospocholine + (2’R)-1’-palmitoyl-2’-{2-[(3S,2"E)-2"-butylidene-1",3",3"-trimethyl]cyclohexyl}acetyl-sn-glycero-3’-phospocholine] | 65.1 ± 12.2 µM | 75.7 ± 10.6 µM | 134 ± 51 µM | 54.4 ± 3.2 µM | – | 111 ± 19.4 µM | 89.7 ± 11.3 µM | 276 ± 25.7 µM | exception | – | 1.35
C=CC(C)(CC/C=C(\C)CCC=C(C)C)CC(=O)OC[C@@H](O)COP(=O)([O-])OCC[N+](C)(C)C (stereo partly drawn) [Compound 8b] | 112 ± 39.8 µM | 260 ± 33.6 µM | 344 ± 40.9 µM | 241 ± 15.1 µM | – | 280 ± 44.4 µM | 250 ± 45.2 µM | 297 ± 18.6 µM | – | – | 1.99
